Assays:
Assay type in all cases: in vivo
Conditions in all cases: application herbicide amount 320 g/ha
[1] = system: Echinochloa oryzacola Vasing.; assay: Test Example 1: herbicidal activity, application before weed generation in submerged conditions (symbol A)
Description: (§1) Herbicidal Activity Test by Application Before Weed Generation in Submerged Conditions
(§2) After alluvial soil was placed into 1/10000 are of Wagner pot, water was poured and mixed to form a submerged condition having a water depth of 4 cm. Seeds of Echinochloa oryzacola Vasing., Scirpus juncoides, and Monochoria vaginalis were sowed in a mixed manner in the above pot and thereafter 2.5 leaf stage rice plant seedlings were transplanted thereto. On the day of sowing seeds, the emulsion agent of the compound of the present invention prepared in accordance with Formulation Example 2 was diluted with water so as to be a predetermined herbicide amount and the diluted emulsion agent was applied to the surface of the water. The pot was placed in a greenhouse of 25° C. to 30° C. to grow plant. 3 weeks later from the herbicide application, the effect to each plant was investigated in accordance with the following criteria.
(§3) 5 Herbicidal ratio of 90% or more (almost completely withered)
(§4) 4 Herbicidal ratio of 70% or higher and lower than 90%
(§5) 3 Herbicidal ratio of 40% or higher and lower than 70%
(§6) 2 Herbicidal ratio of 20% or higher and lower than 40%
(§7) 1 Herbicidal ratio of 5% or higher and lower than 20%
(§8) 0 Herbicidal ratio of 5% or lower (almost no effect)

Monochoria vaginalis = assay: Test Example 1: herbicidal activity, application before weed generation in submerged conditions (symbol C)
Description: as §1, §2, §3, §4, §5, §6, §7, §8

transplanted rice plant = assay: Test Example 1: effect on crop, application before weed generation in submerged conditions (symbol a)
Protocol: as §1
as §2, with “On the day of sowing seeds, the emulsion agent of the compound of the present invention prepared in accordance with Formulation Example 2 was diluted with water so as to be a predetermined herbicide amount and the diluted emulsion agent was applied to the surface of the water.” left out
as §3, §4, §5, §6, §7, §8

Scirpus juncoides = assay: Test Example 1: herbicidal activity, application before weed generation in submerged conditions (symbol B)
Description: as §1, §2, §3, §4, §5, §6, §7, §8

Cyperus difformis = assay: Test Example 3: herbicidal effect by foliage application, Wagner pot (symbol E)
Protocol: (§9) Herbicidal Effect Test by Foliage Application
(§10) After alluvial soil was placed into 1/10000 are of Wagner pot, water was poured and mixed to form a submerged condition having a water depth of 0.1 cm to 0.5 cm. Seeds of Echinochloa crus-galli var. crus-galli, Leptochloa chinensis, Cyperus difformis, and rice were sowed and the pot was placed in the greenhouse of 25° C. to 30° C. to grow the plants. After the plants were grown for 14 days, the emulsion agent of the compound of the present invention prepared in accordance with Formulation Example 2 was diluted with water so as to be a predetermined herbicide amount and the diluted emulsion agent was uniformly applied to a foliage part with a small-size spray. 3 weeks later from the herbicide application, the effect to each plant was investigated in accordance with the criteria of Test Example 1.

[2] = system: Echinochloa crus-galli var. crus-galli; assay: Test Example 3: herbicidal effect by foliage application, Wagner pot (symbol H)
Protocol: as §9, §10

[3] = system: directly sowed rice plant; assay: Test Example 3: effect on crop by foliage application, Wagner pot (symbol b)
Protocol: as §9
After alluvial soil was placed into 1/10000 are of Wagner pot, water was poured and mixed to form a submerged condition having a water depth of 0.1 cm to 0.5 cm. Seeds of Echinochloa crus-galli var. crus-galli, Leptochloa chinensis, Cyperus difformis, and rice were sowed and the pot was placed in the greenhouse of 25° C. to 30° C. to grow the plants.

Leptochloa chinensis = assay: Test Example 3: herbicidal effect by foliage application, Wagner pot (symbol D)
Protocol: as §9, §10

Row | SMILES | herbicidal effect on E, grade 0-5 (Cyperus difformis) | herbicidal effect on H (Echinochloa crus-galli var. crus-galli), grade 0-5 [2] | effect on crop b (directly sowed rice plant), grade 0-5 [3] | herbicidal effect on D (Leptochloa chinensis), grade 0-5 (Leptochloa chinensis) | further results
1 | CON=C(CCl)CC1CC(OC)=C(c2c(C)cc(C)cc2C)C1=O (stereo not drawn) [1-077] | – | – | – | – | Herbicidal effect grade, A: Echinochloa oryzacola Vasing. [1]: 1 (Herbicidal ratio of 5% or higher and lower than 20%); Herbicidal effect grade, C: Monochoria vaginalis (Monochoria vaginalis): 0 (Herbicidal ratio of 5% or lower (almost no effect)); Effect grade on crop, a: transplanted rice plant (transplanted rice plant): 1 (Herbicidal ratio of 5% or higher and lower than 20%); Herbicidal effect grade, B: Scirpus juncoides (Scirpus juncoides): 2 (Herbicidal ratio of 20% or higher and lower than 40%)
2 | CON=C(CCl)CC1CC(O)=C(c2c(C)cc(C)cc2C)C1=O (stereo not drawn) [1-084] | 0 (Herbicidal ratio of 5% or lower (almost no effect)) | 2 (Herbicidal ratio of 20% or higher and lower than 40%) | 1 (Herbicidal ratio of 5% or higher and lower than 20%) | 0 (Herbicidal ratio of 5% or lower (almost no effect)) | –
3 | CON=C(C)CC1CC(OC(=S)N(C)C)=C(c2c(C)cc(C)cc2C)C1=O (stereo not drawn) [1-141] | – | 2 (Herbicidal ratio of 20% or higher and lower than 40%) | 1 (Herbicidal ratio of 5% or higher and lower than 20%) | 0 (Herbicidal ratio of 5% or lower (almost no effect)) | –
4 | CON=C(C)CC1CC(OC(=O)N(c2ccccc2)c2ccccc2)=C(c2c(C)cc(C)cc2C)C1=O (stereo not drawn) [1-157] | – | 0 (Herbicidal ratio of 5% or lower (almost no effect)) | 0 (Herbicidal ratio of 5% or lower (almost no effect)) | 4 (Herbicidal ratio of 70% or higher and lower than 90%) | –
5 | CON=C(CC1CC(O)=C(c2c(C)cc(C)cc2C)C1=O)c1ccc(C)cc1 (stereo not drawn) [1-164] | 0 (Herbicidal ratio of 5% or lower (almost no effect)) | 2 (Herbicidal ratio of 20% or higher and lower than 40%) | 4 (Herbicidal ratio of 70% or higher and lower than 90%) | 3 (Herbicidal ratio of 40% or higher and lower than 70%) | –
6 | CON=C(C)CC1CC(O)=C(c2c(C)cc(OCc3ccncc3)cc2C)C1=O (stereo not drawn) [6-070] | 0 (Herbicidal ratio of 5% or lower (almost no effect)) | 0 (Herbicidal ratio of 5% or lower (almost no effect)) | 0 (Herbicidal ratio of 5% or lower (almost no effect)) | 4 (Herbicidal ratio of 70% or higher and lower than 90%) | –
7 | CC(=O)CC1CC(O)=C(c2c(C)cc(OCc3ccncc3)cc2C)C1=O (stereo not drawn) [7-021] | 0 (Herbicidal ratio of 5% or lower (almost no effect)) | 2 (Herbicidal ratio of 20% or higher and lower than 40%) | 0 (Herbicidal ratio of 5% or lower (almost no effect)) | 2 (Herbicidal ratio of 20% or higher and lower than 40%) | –
8 | COC(=O)C(C(C)=O)C1CC(O)=C(c2c(F)cc(Br)cc2OC)C1=O (stereo not drawn) [7-028] | – | – | – | – | E herbicidal effect grade (Cyperus difformis; Table 24): 0 (Herbicidal ratio of 5% or lower (almost no effect)); H (Echinochloa crus-galli var. crus-galli) herbicidal effect grade ([2]; Table 24): 0 (Herbicidal ratio of 5% or lower (almost no effect)); b (directly sowed rice plant) effect on crop grade ([3]; Table 24): 0 (Herbicidal ratio of 5% or lower (almost no effect)); D (Leptochloa chinensis) herbicidal effect grade (Leptochloa chinensis; Table 24): 0 (Herbicidal ratio of 5% or lower (almost no effect))

Source: patent US11000033B2, “Ketone or oxime compound, and herbicide” (NISSAN CHEMICAL CORPORATION, priority 2014, dated 2021)
